Results as given in patent publication US20230143604A1, “QW DOSING OF GIP RECEPTOR AGONIST PEPTIDE COMPOUNDS AND USES THEREOF” (TAKEDA PHARMACEUTICAL COMPANY LIMITED, priority 2020, published 2023).
Starred links: 1 amine or outer side, 2 acyl side, 3 side chain; linkers in the order of their positions; H or OH if unused. Positions of bridges follow the written chain, without caps; N, C: chain ends. Non-standard residues stand in square brackets, D forms with d. Residues, ends and D or L forms follow the SMILES beside them. Groups on a side chain read outwards from the residue. Chains are numbered I, II in the order given. *: point of attachment. C18 diacid = O=C(O)CCCCCCCCCCCCCCCCC(=O)*; γGlu = O=C(O)[C@H](CCC(=O)[*:2])N[*:1]; NMeY = CN[C@@H](Cc1ccc(O)cc1)C(=O)O; AEEA = NCCOCCOCC(=O)O; Aib = CC(C)(N)C(=O)O

Test: physchem
Conditions: pH 7.4, aqueous buffer
In short: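 Solubility at pH 7.4 determined by stepwise addition of 200 mM phosphate buffer in 100 μL increments to 3 mg peptide, mixing briefly each time, until no insoluble material remained, then measured by liquid chromatography.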

SMILES	solubility	solubility (pH 7.4 Phosphate Buffer - Solubility, 200 mM Phosphate buffer pH 7.4)
CC[C@H](C)[C@H](NC(=O)[C@H](CO)NC(=O)[C@H](Cc1ccc(O)cc1)NC(=O)[C@H](CC(=O)O)NC(=O)[C@H](CO)NC(=O)[C@@H](NC(=O)[C@H](Cc1ccccc1)NC(=O)[C@@H](NC(=O)CNC(=O)[C@H](CCC(=O)O)NC(=O)C(C)(C)NC(=O)[C@H](Cc1ccc(O)cc1)NC)[C@@H](C)O)[C@@H](C)CC)C(=O)N[C@@H](C)C(=O)N[C@@H](CC(C)C)C(=O)N[C@@H](CC(=O)O)C(=O)N[C@@H](CCCNC(=N)N)C(=O)N[C@H](C(=O)N[C@@H](CCCCNC(=O)COCCOCCNC(=O)COCCOCCNC(=O)CC[C@H](NC(=O)CC[C@H](NC(=O)CCCCCCCCCCCCCCCCC(=O)O)C(=O)O)C(=O)O)C(=O)N[C@@H](CCC(N)=O)C(=O)N[C@@H](CCC(N)=O)C(=O)N[C@@H](CC(=O)O)C(=O)N[C@@H](Cc1ccccc1)C(=O)N[C@H](C(=O)N[C@@H](CC(N)=O)C(=O)N[C@@H](Cc1c[nH]c2ccccc12)C(=O)N[C@@H](CC(C)C)C(=O)N[C@@H](CC(C)C)C(=O)N[C@@H](C)C(=O)N[C@@H](CCC(N)=O)C(=O)N[C@@H](CCCNC(=N)N)C(=O)N1CCC[C@H]1C(=O)N[C@@H](CO)C(=O)N[C@@H](CO)C(=O)NCC(=O)O)C(C)C)[C@@H](C)CC [Compound 287] (H-[NMeY][Aib]EGTFISDYSIALDRIK([AEEA-AEEA-γGlu-γGlu-C18 diacid])QQDFVNWLLAQRPSSG-OH)	< 6000 µg/mL	
CC[C@H](C)[C@H](NC(=O)[C@H](CO)NC(=O)[C@H](Cc1ccc(O)cc1)NC(=O)[C@H](CC(=O)O)NC(=O)[C@H](CO)NC(=O)[C@@H](NC(=O)[C@H](Cc1ccccc1)NC(=O)[C@@H](NC(=O)CNC(=O)[C@H](CCC(=O)O)NC(=O)C(C)(C)NC(=O)[C@H](Cc1ccc(O)cc1)NC)[C@@H](C)O)[C@@H](C)CC)C(=O)N[C@@H](C)C(=O)N[C@@H](CC(C)C)C(=O)N[C@@H](CC(=O)O)C(=O)N[C@@H](CCCNC(=N)N)C(=O)N[C@@H](CCCCNC(=O)CNC(=O)CNC(=O)CNC(=O)CNC(=O)CNC(=O)CCCCCCCCCCCCCCCCC(=O)O)C(=O)N[C@@H](C)C(=O)N[C@@H](CCC(N)=O)C(=O)N[C@@H](CCC(N)=O)C(=O)N[C@@H](CC(=O)O)C(=O)N[C@@H](Cc1ccccc1)C(=O)N[C@H](C(=O)N[C@@H](CC(N)=O)C(=O)N[C@@H](Cc1c[nH]c2ccccc12)C(=O)N[C@@H](CC(C)C)C(=O)N[C@@H](CC(C)C)C(=O)N[C@@H](C)C(=O)N[C@@H](CCC(N)=O)C(=O)N[C@@H](CCCNC(=N)N)C(=O)N1CCC[C@H]1C(=O)N[C@@H](CO)C(=O)N[C@@H](CO)C(=O)NCC(=O)O)C(C)C [Compound 288]	< 6000 µg/mL	
CC[C@H](C)[C@H](NC(=O)[C@H](CO)NC(=O)[C@H](Cc1ccc(O)cc1)NC(=O)[C@H](CC(=O)O)NC(=O)[C@H](CO)NC(=O)[C@@H](NC(=O)[C@H](Cc1ccccc1)NC(=O)[C@@H](NC(=O)CNC(=O)[C@H](CCC(=O)O)NC(=O)C(C)(C)NC(=O)[C@H](Cc1ccc(O)cc1)NC)[C@@H](C)O)[C@@H](C)CC)C(=O)N[C@@H](C)C(=O)N[C@@H](CCCCNC(=O)CNC(=O)CNC(=O)[C@@H]1CCCN1C(=O)[C@H](C)NC(=O)[C@@H]1CCCN1C(=O)[C@H](C)NC(=O)[C@@H]1CCCN1C(=O)CCCCCCCCCCCCCCCCC(=O)O)C(=O)N[C@@H](CC(=O)O)C(=O)N[C@@H](CCCNC(=N)N)C(=O)NC(C)(C)C(=O)N[C@@H](C)C(=O)N[C@@H](CCC(N)=O)C(=O)NC(C)(C)C(=O)N[C@@H](CC(=O)O)C(=O)N[C@@H](Cc1ccccc1)C(=O)N[C@H](C(=O)N[C@@H](CC(N)=O)C(=O)N[C@@H](Cc1c[nH]c2ccccc12)C(=O)N[C@@H](CC(C)C)C(=O)N[C@@H](CC(C)C)C(=O)N[C@@H](C)C(=O)N[C@@H](CCC(N)=O)C(=O)N[C@@H](CCCCN)C(=O)NCC(=O)O)C(C)C [Compound 289] (I: H-[NMeY][Aib]EGTFISDYSIAKDR[Aib]AQ[Aib]DFVNWLLAQKG-OH / II: {C18 diacid}-PAPAPGG; amide I:14-II:C)	≥ 10000 µg/mL	
CC[C@H](C)[C@H](NC(=O)[C@H](CO)NC(=O)[C@H](Cc1ccc(O)cc1)NC(=O)[C@H](CC(=O)O)NC(=O)[C@H](CO)NC(=O)[C@@H](NC(=O)[C@H](Cc1ccccc1)NC(=O)[C@@H](NC(=O)CNC(=O)[C@H](CCC(=O)O)NC(=O)C(C)(C)NC(=O)[C@H](Cc1ccc(O)cc1)NC)[C@@H](C)O)[C@@H](C)CC)C(=O)N[C@@H](C)C(=O)N[C@@H](CC(C)C)C(=O)N[C@@H](CC(=O)O)C(=O)N[C@@H](CCCNC(=N)N)C(=O)N[C@@H](CCCCNC(=O)CNC(=O)CNC(=O)CNC(=O)CNC(=O)CNC(=O)CCCCCCCCCCCCCCCCC(=O)O)C(=O)N[C@@H](C)C(=O)N[C@@H](CCC(N)=O)C(=O)NC(C)(C)C(=O)N[C@@H](CC(N)=O)C(=O)N[C@@H](Cc1ccccc1)C(=O)N[C@H](C(=O)N[C@@H](CC(N)=O)C(=O)N[C@@H](Cc1c[nH]c2ccccc12)C(=O)N[C@@H](CC(C)C)C(=O)N[C@@H](CC(C)C)C(=O)N[C@@H](C)C(=O)N[C@@H](CCC(N)=O)C(=O)N[C@@H](CO)C(=O)N1CCC[C@H]1C(=O)NCC(=O)O)C(C)C [Compound 290]	≥ 7500 µg/mL	
CC[C@H](C)[C@H](NC(=O)[C@H](CO)NC(=O)[C@H](Cc1ccc(O)cc1)NC(=O)[C@H](CC(=O)O)NC(=O)[C@H](CO)NC(=O)[C@@H](NC(=O)[C@H](Cc1ccccc1)NC(=O)[C@@H](NC(=O)CNC(=O)[C@H](CCC(=O)O)NC(=O)C(C)(C)NC(=O)[C@@H](N)Cc1ccc(O)cc1)[C@@H](C)O)[C@@H](C)CC)C(=O)N[C@@H](C)C(=O)N[C@@H](CCCCNC(=O)CNC(=O)CNC(=O)CNC(=O)CNC(=O)CNC(=O)CCCCCCCCCCCCCCCCC(=O)O)C(=O)N[C@@H](CC(=O)O)C(=O)N[C@@H](CCCNC(=N)N)C(=O)N[C@@H](C)C(=O)N[C@@H](C)C(=O)N[C@@H](CCC(N)=O)C(=O)NC(C)(C)C(=O)N[C@@H](CC(=O)O)C(=O)N[C@@H](Cc1ccccc1)C(=O)N[C@H](C(=O)N[C@@H](CCC(=O)O)C(=O)N[C@@H](Cc1c[nH]c2ccccc12)C(=O)N[C@@H](CC(C)C)C(=O)N[C@@H](CC(C)C)C(=O)N[C@@H](C)C(=O)N[C@@H](CCC(N)=O)C(=O)N[C@@H](CCCNC(=N)N)C(=O)NCC(=O)O)C(C)C [Compound 291]	< 6000 µg/mL	
CC[C@H](C)[C@H](NC(=O)[C@H](CCCNC(=N)N)NC(=O)[C@H](CC(=O)O)NC(=O)[C@H](CCCCNC(=O)CNC(=O)CNC(=O)CNC(=O)CNC(=O)CNC(=O)CCCCCCCCCCCCCCCCC(=O)O)NC(=O)[C@H](C)NC(=O)[C@@H](NC(=O)[C@H](CO)NC(=O)[C@H](Cc1ccc(O)cc1)NC(=O)[C@H](CC(=O)O)NC(=O)[C@H](CO)NC(=O)[C@@H](NC(=O)[C@H](Cc1ccccc1)NC(=O)[C@@H](NC(=O)CNC(=O)[C@H](CCC(=O)O)NC(=O)C(C)(C)NC(=O)[C@H](Cc1ccc(O)cc1)NC)[C@@H](C)O)[C@@H](C)CC)[C@@H](C)CC)C(=O)N[C@@H](C)C(=O)N[C@@H](CCC(N)=O)C(=O)N[C@@H](CCC(N)=O)C(=O)N[C@@H](CC(N)=O)C(=O)N[C@@H](Cc1ccccc1)C(=O)N[C@H](C(=O)N[C@@H](CC(N)=O)C(=O)N[C@@H](Cc1c[nH]c2ccccc12)C(=O)N[C@@H](CC(C)C)C(=O)N[C@@H](CC(C)C)C(=O)N[C@@H](C)C(=O)N[C@@H](CCC(N)=O)C(=O)N[C@@H](CO)C(=O)N1CCC[C@H]1C(=O)N[C@@H](CO)C(=O)N[C@@H](CO)C(=O)NCC(=O)N[C@@H](C)C(=O)N1CCC[C@H]1C(=O)N1CCC[C@H]1C(=O)N1CCC[C@H]1C(=O)N[C@@H](CO)C(=O)O)C(C)C [Compound 292]		< 6000 µg/mL
